Measurements from article PMC11822212, “High-throughput screening identifies Aurora kinase B as a critical therapeutic target for Merkel cell carcinoma” (Nature Communications, 2025).
Counter-ions that a name gives are not always drawn.

Key:
MKL-2 cells (VP-MCC) = experiment: qHTS cell viability (CellTiter-Glo, 72 h; primary and follow-up small molecule screen); format: cell-based, human
HACAT cells = experiment: qHTS cell viability (CellTiter-Glo, 72 h; primary screen), control cell line; format: cell-based, human
HEK293T cells = experiment: as above; format: cell-based, human
UISO cells (VN-MCC) = experiment: qHTS cell viability (CellTiter-Glo, 72 h; primary and follow-up small molecule screen); format: cell-based, human
WAGA cells (VP-MCC) = experiment: as above; format: cell-based, human
MCC13 cells (VN-MCC) = experiment: as above; format: cell-based, human
MCC26 cells (VN-MCC) = experiment: as above; format: cell-based, human
[1] = system: six MCC cell lines and four control cell lines; experiment: qHTS cell viability, all 10 cell lines screened; format: cell-based
[2] = system: control cell lines (HACAT, HEK293T, CRL-7250, NIH-3T3); experiment: qHTS cell viability, control cell lines as a group (mean AUC, Control.avg); format: cell-based; details: mean AUC of control cell lines
[3] = system: VP-MCC cell lines (WAGA, MKL-1, MKL-2); experiment: qHTS cell viability, VP-MCC cell lines as a group (mean AUC, VP.MCC.avg); format: cell-based, human; details: for VP-MCC_Avg_AUC: mean AUC of VP-MCC cell lines
[4] = system: VN-MCC cell lines (MCC13, MCC26, UISO); experiment: qHTS cell viability, VN-MCC cell lines as a group (mean AUC, VN.MCC.avg); format: cell-based, human; details: for VN-MCC_Avg_AUC: mean AUC of VN-MCC cell lines
NIH-3T3 cells = experiment: qHTS cell viability (CellTiter-Glo, 72 h; primary screen), control cell line; format: cell-based, mouse
[5] = system: MCC cell lines (WAGA, MKL-1, MKL-2, MCC13, MCC26, UISO); experiment: qHTS cell viability, all six MCC cell lines as a group (mean AUC, MCC.avg); format: cell-based, human
MKL-1 cells (VP-MCC) = experiment: qHTS cell viability (CellTiter-Glo, 72 h; primary and follow-up small molecule screen); format: cell-based, human
CRL-7250 cells = experiment: qHTS cell viability (CellTiter-Glo, 72 h; primary screen), control cell line; format: cell-based
[6] = NPC library, qHTS dose-response AUC, MKL2
[7] = NPC library, qHTS dose-response AUC, HACAT control
[8] = NPC library, qHTS dose-response AUC, UISO
[9] = NPC library, qHTS dose-response AUC, WAGA
[10] = NPC library; qHTS dose-response AUC, MCC26
[11] = NPC library, therapeutic window: Control avg AUC minus MCC avg AUC
[12] = NPC library, therapeutic window: Control avg AUC minus VP-MCC avg AUC
[13] = NPC library, therapeutic window: Control avg AUC minus VN-MCC avg AUC
[14] = NPC library, qHTS dose-response AUC, NIH3T3 control
[15] = NPC library, mean AUC of six MCC cell lines
[16] = NPC library, qHTS dose-response AUC, MKL1
[17] = NPC library, qHTS dose-response AUC, CRL7250 control
[18] = MIPE library, 11-point DRC, sheet S2D
[19] = MIPE library, 11-point DRC, sheet S2E
[20] = MIPE library, 11-point DRC, control cell line, sheet S2D
[21] = MIPE library, 11-point DRC, control cell line, sheet S2E

SMILES: CCCCCC(=O)O[C@]1(C(C)=O)CC[C@H]2[C@@H]3CCC4=CC(=O)CC[C@]4(C)[C@H]3CC[C@@]21C [Hydroxyprogesterone caproate]
- MKL2_AUC (MKL-2 cells (VP-MCC); [6]): 288.23
- HACAT_AUC (HACAT cells; [7]): 471.336
- HEK293T_AUC (HEK293T cells; NPC library, qHTS dose-response AUC, HEK293T control): 404.302
- UISO_AUC (UISO cells (VN-MCC); [8]): 419.635
- WAGA_AUC (WAGA cells (VP-MCC); [9]): 360.251
- MCC13_AUC (MCC13 cells (VN-MCC); NPC library, qHTS dose-response AUC, MCC13): 442.155
- MCC26_AUC (MCC26 cells (VN-MCC); NPC library, qHTS dose-response AUC, MCC26): 432.584
- MCC26_AUC (MCC26 cells (VN-MCC); [10]): 432.583
- Control-MCC [1, 11]: 74.9886
- Control_Avg_AUC ([2]; NPC library): 456.027
- Control-VP-MCC ([3]; Control AUC minus VP-MCC AUC): 125.408
- VP-MCC_Avg_AUC ([3]; NPC library): 330.619
- Control-VP-MCC [3, 12]: 125.408
- Control-VN-MCC ([4]; Control AUC minus VN-MCC AUC): 24.569
- VN-MCC_Avg_AUC ([4]; NPC library): 431.458
- Control-VN-MCC [4, 13]: 24.569
- NIH3T3_AUC (NIH-3T3 cells; [14]): 480.983
- MCC_Avg_AUC ([5]; NPC library, mean AUC of all 6 MCC cell lines): 381.038
- MCC_Avg_AUC [5, 15]: 381.038
- MKL1_AUC (MKL-1 cells (VP-MCC); [16]): 343.375
- CRL7250_AUC (CRL-7250 cells; [17]): 467.486

SMILES: CC[C@@]1(O)C(=O)OCc2c1cc1n(c2=O)Cc2cc3c(CN(C)C)c(O)ccc3nc2-1 [Topotecan HCl]
- MKL2_AUC (MKL-2 cells (VP-MCC); [18]): 250.703
- MKL2_AUC (MKL-2 cells (VP-MCC); [19]): 250.703
- MKL2_AUC (MKL-2 cells (VP-MCC); [6]): 174.677
- Area under the dose-response curve (AUC) MKL-2 Replicate 1 (MKL-2 cells (VP-MCC); follow-up screen, MKL-2, replicate 1): 184.1
- Area under the dose-response curve (AUC) MKL-2 Replicate 2 (MKL-2 cells (VP-MCC); follow-up screen, MKL-2, replicate 2): 181.9
- Area under the dose-response curve (AUC) MKL-2 Replicate 3 (MKL-2 cells (VP-MCC); follow-up screen, MKL-2, replicate 3): 262.9
- HACAT_AUC (HACAT cells; [20]): 331.992
- HACAT_AUC (HACAT cells; [21]): 331.992
- HACAT_AUC (HACAT cells; [7]): 242.195
- HEK293T_AUC (HEK293T cells; [20]): 287.732
- HEK293T_AUC (HEK293T cells; [21]): 287.732
- HEK293T_AUC (HEK293T cells; NPC library; qHTS dose-response AUC, HEK293T control): 225.562
- UISO_AUC (UISO cells (VN-MCC); [18]): 243.367
- UISO_AUC (UISO cells (VN-MCC); [19]): 243.367
- UISO_AUC (UISO cells (VN-MCC); [8]): 244.938
- Area under the dose-response curve (AUC) UISO Replicate 1 (UISO cells (VN-MCC); follow-up screen, UISO, replicate 1): 203.8
- Area under the dose-response curve (AUC) UISO Replicate 2 (UISO cells (VN-MCC); follow-up screen, UISO, replicate 2): 226.9
- Area under the dose-response curve (AUC) UISO Replicate 3 (UISO cells (VN-MCC); follow-up screen, UISO, replicate 3): 223.1
- WAGA_AUC (WAGA cells (VP-MCC); [18]): 175.987
- WAGA_AUC (WAGA cells (VP-MCC); [19]): 175.987
- WAGA_AUC (WAGA cells (VP-MCC); [9]): 138.765
- Area under the dose-response curve (AUC) WAGA Replicate 1 (WAGA cells (VP-MCC); follow-up screen, WAGA, replicate 1): 206.9
- Area under the dose-response curve (AUC) WAGA Replicate 2 (WAGA cells (VP-MCC); follow-up screen, WAGA, replicate 2): 188.0
- Area under the dose-response curve (AUC) WAGA Replicate 3 (WAGA cells (VP-MCC); follow-up screen, WAGA, replicate 3): 185.4
- MCC13_AUC (MCC13 cells (VN-MCC); [18]): 336.51
- MCC13_AUC (MCC13 cells (VN-MCC); [19]): 336.51
- MCC26_AUC (MCC26 cells (VN-MCC); [18]): 328.226
- MCC26_AUC (MCC26 cells (VN-MCC); [19]): 328.226
- MCC26_AUC (MCC26 cells (VN-MCC); [10]): 267.734
- Area under the dose-response curve (AUC) MCC26 Replicate 1 (MCC26 cells (VN-MCC); follow-up screen; MCC26; replicate 1): 273.0
- Area under the dose-response curve (AUC) MCC26 Replicate 2 (MCC26 cells (VN-MCC); follow-up screen; MCC26; replicate 2): 257.6
- Area under the dose-response curve (AUC) MCC26 Replicate 3 (MCC26 cells (VN-MCC); follow-up screen; MCC26; replicate 3): 280.5
- Control-MCC ([1]; MIPE library, Control AUC minus MCC AUC (therapeutic window), sheet S2D): 77.6607
- Control-MCC ([1]; MIPE library, Control AUC minus MCC AUC (therapeutic window), sheet S2E): 77.6607
- Control-MCC [1, 11]: 81.3959
- Control_Avg_AUC ([2]; MIPE library, sheet S2D): 345.124
- Control_Avg_AUC ([2]; MIPE library, sheet S2E): 345.124
- Control_Avg_AUC ([2]; NPC library): 300.661
- Control-VP-MCC ([3]; MIPE library, Control AUC minus VP-MCC AUC (therapeutic window), sheet S2D): 112.898
- Control-VP-MCC ([3]; MIPE library, Control AUC minus VP-MCC AUC (therapeutic window), sheet S2E): 112.898
- VP-MCC_Avg_AUC ([3]; MIPE library, sheet S2D): 232.226
- VP-MCC_Avg_AUC ([3]; MIPE library, sheet S2E): 232.226
- VP-MCC_Avg_AUC ([3]; NPC library): 166.29
- Control-VP-MCC [3, 12]: 134.37
- Control-VN-MCC ([4]; MIPE library, Control AUC minus VN-MCC AUC (therapeutic window), sheet S2D): 42.4232
- Control-VN-MCC ([4]; MIPE library, Control AUC minus VN-MCC AUC (therapeutic window), sheet S2E): 42.4232
- VN-MCC_Avg_AUC ([4]; MIPE library, sheet S2D): 302.701
- VN-MCC_Avg_AUC ([4]; MIPE library, sheet S2E): 302.701
- VN-MCC_Avg_AUC ([4]; NPC library): 272.239
- Control-VN-MCC [4, 13]: 28.4215
- NIH3T3_AUC (NIH-3T3 cells; [20]): 368.835
- NIH3T3_AUC (NIH-3T3 cells; [21]): 368.835
- NIH3T3_AUC (NIH-3T3 cells; [14]): 374.778
- MCC_Avg_AUC ([5]; MIPE library, mean AUC of six MCC cell lines, sheet S2D): 267.463
- MCC_Avg_AUC ([5]; MIPE library, mean AUC of six MCC cell lines, sheet S2E): 267.463
- MCC_Avg_AUC [5, 15]: 219.265
- MKL1_AUC (MKL-1 cells (VP-MCC); [18]): 269.988
- MKL1_AUC (MKL-1 cells (VP-MCC); [19]): 269.988
- MKL1_AUC (MKL-1 cells (VP-MCC); [16]): 185.429
- Area under the dose-response curve (AUC) MKL-1 Replicate 1 (MKL-1 cells (VP-MCC); follow-up screen, MKL-1, replicate 1): 222.0
- Area under the dose-response curve (AUC) MKL-1 Replicate 2 (MKL-1 cells (VP-MCC); follow-up screen, MKL-1, replicate 2): 224.3
- Area under the dose-response curve (AUC) MKL-1 Replicate 3 (MKL-1 cells (VP-MCC); follow-up screen, MKL-1, replicate 3): 226.9
- CRL7250_AUC (CRL-7250 cells; [20]): 391.937
- CRL7250_AUC (CRL-7250 cells; [21]): 391.937
- CRL7250_AUC (CRL-7250 cells; [17]): 360.108
